Measurements from US6969702B2, “Compounds and methods for increasing neurogenesis” (priority 2002, dated 2005).
Read-outs that look alike come from different tables or passages of the source. Marks after values point to notes of the source that are not given here. Bridge positions count the residues as written; N and C are the ends. Square brackets hold non-standard residues; d marks the D form. Ends that are not written are not given here. Peptide text beside a SMILES is read from it. pGlu = O=C1CC[C@@H](C(=O)O)N1

Columns and labels:
[1] = system: mouse adult neural stem cells; conditions: 0.1 µM
[2] = system: cAMP activation in mouse adult neural stem cells
[3] = system: Adult neural stem cells; conditions: 0.1 µM
[4] = system: Adult neural stem cells; assay: Flow cytometry for early neuronal marker Doublecortin; conditions: for Fold Induction (Doublecortin-positive cells): vs EGF/FGF
[5] = system: cAMP activation in mouse adult neural stem cells; assay: cAMP detection (HitHunter EFC Cyclic AMP Chemiluminescence Assay); conditions: Table 2; for Fold Induction cAMP: vs vehicle
[6] = system: mouse adult neural stem cells; assay: ATP-assay: proliferation (ATP levels) of neurosphere-derived cells
[7] = system: NFAT-Luciferace reporter (Ca^2+); conditions: for NFAT Luciferace units: 24 hours after induction
[8] = system: CREB phosphorylation in mouse adult neural stem cells; format: cell-based; conditions: 100 nM; mouse adult neural stem cells; time course 15 minutes to 8 hours
[9] = system: CREB phosphorylation in human adult neural stem cells; format: cell-based; conditions: 100 nM; human adult neural stem cells; time course 15 minutes to 8 hours
[10] = Table 2, 10 nM, 4 days, vs vehicle

CC[C@H](C)[C@H](NC(=O)[C@H](CCC(N)=O)NC(=O)[C@H](Cc1c[nH]cn1)NC(=O)[C@H](C)NC(=O)[C@H](CC(C)C)NC(=O)[C@H](CCCCN)NC(=O)[C@H](CCC(N)=O)NC(=O)[C@@H](NC(=O)[C@@H](N)[C@@H](C)O)C(C)C)C(=O)N[C@@H](Cc1ccc(O)cc1)C(=O)N[C@@H](CCC(N)=O)C(=O)N[C@@H](Cc1ccccc1)C(=O)N[C@H](C(=O)N[C@@H](CC(=O)O)C(=O)N[C@@H](CCCCN)C(=O)N[C@@H](CC(=O)O)C(=O)N[C@@H](CCCCN)C(=O)N[C@@H](CC(=O)O)C(=O)N[C@@H](CC(N)=O)C(=O)N[C@H](C(=O)N[C@@H](C)C(=O)N1CCC[C@H]1C(=O)N[C@@H](CCCNC(=N)N)C(=O)N[C@@H](CO)C(=O)N[C@@H](CCCCN)C(=O)N[C@H](C(=O)N[C@@H](CO)C(=O)N1CCC[C@H]1C(=O)N[C@@H](CCC(N)=O)C(=O)NCC(=O)N[C@@H](Cc1ccc(O)cc1)C(N)=O)[C@@H](C)CC)C(C)C)[C@@H](C)O [Adrenomedullin (22-52)]
Fold Induction ATP [1]: 1.6** fold
Fold Induction cAMP ([2]; 0.1 µM): 1.6* fold
Fold Induction (Doublecortin-positive cells) [3]: 0.8 fold
% Doublecortin-positive cells [4]: 2.0%
cAMP (pmol/well) ([5]; 100 nM (cAMP concentration)): 0.34 ± 0.07 pmol/well
ATP (nM ATP/well) ([6]; Table 2, 100 nM, 4 days): 12.3 ± 1.1 nM ATP/well

CC[C@H](C)[C@H](NC(=O)[C@H](CCC(N)=O)NC(=O)[C@H](Cc1c[nH]cn1)NC(=O)[C@H](C)NC(=O)[C@H](CC(C)C)NC(=O)[C@H](CCCCN)NC(=O)[C@H](CCC(N)=O)NC(=O)[C@@H](NC(=O)[C@@H](NC(=O)[C@@H]1CSSC[C@H](NC(=O)CNC(=O)[C@H](Cc2ccccc2)NC(=O)[C@H](CO)NC(=O)[C@H](CCCNC(=N)N)NC(=O)[C@H](CC(C)C)NC(=O)CNC(=O)[C@H](CCC(N)=O)NC(=O)[C@H](Cc2ccccc2)NC(=O)[C@H](CC(N)=O)NC(=O)[C@H](CC(N)=O)NC(=O)[C@H](CCSC)NC(=O)[C@H](CO)NC(=O)[C@H](CCC(N)=O)NC(=O)[C@H](CCCNC(=N)N)NC(=O)[C@@H](N)Cc2ccc(O)cc2)C(=O)N[C@@H](CCCNC(=N)N)C(=O)N[C@@H](Cc2ccccc2)C(=O)NCC(=O)N[C@@H]([C@@H](C)O)C(=O)N1)[C@@H](C)O)C(C)C)C(=O)N[C@@H](Cc1ccc(O)cc1)C(=O)N[C@@H](CCC(N)=O)C(=O)N[C@@H](Cc1ccccc1)C(=O)N[C@H](C(=O)N[C@@H](CC(=O)O)C(=O)N[C@@H](CCCCN)C(=O)N[C@@H](CC(=O)O)C(=O)N[C@@H](CCCCN)C(=O)N[C@@H](CC(=O)O)C(=O)N[C@@H](CC(N)=O)C(=O)N[C@H](C(=O)N[C@@H](C)C(=O)N1CCC[C@H]1C(=O)N[C@@H](CCCNC(=N)N)C(=O)N[C@@H](CO)C(=O)N[C@@H](CCCCN)C(=O)N[C@H](C(=O)N[C@@H](CO)C(=O)N1CCC[C@H]1C(=O)N[C@@H](CCC(N)=O)C(=O)NCC(=O)N[C@@H](Cc1ccc(O)cc1)C(N)=O)[C@@H](C)CC)C(C)C)[C@@H](C)O [Adrenomedullin (human)]
Fold Induction ATP [1]: 1.1* fold
Fold Induction cAMP ([2]; 0.1 µM): 2.5** fold
Fold Induction NFAT ([7]; 0.1 µM): 2.2** fold
NFAT Luciferace units ([7]; Table 4, 100 nM): 12.4 ± 0.9 Luciferace units
Fold Induction (Doublecortin-positive cells) [3]: 1.6 fold
% Doublecortin-positive cells ([4]; Table 6, 100 nM, 4 days): 4.2%
cAMP (pmol/well) ([5]; 100 nM (cAMP concentration)): 0.15 ± 0.3 pmol/well
ATP (nM ATP/well) ([6]; Table 2, 100 nM, 4 days): 11.6 ± 0.8 nM ATP/well
ATP (nM ATP/well) ([6]; Table 4, 100 nM): 11.6 ± 0.8 nM ATP/well

CC[C@H](C)[C@H](NC(=O)[C@H](Cc1ccccc1)NC(=O)[C@H](C)NC(=O)[C@H](CC(=O)O)NC(=O)[C@H](CCCCN)NC(=O)[C@H](CO)NC(=O)[C@@H]1CCCN1C(=O)[C@@H]1CCC(=O)N1)C(=O)NCC(=O)N[C@@H](CC(C)C)C(=O)N[C@@H](CCSC)C(N)=O [Eledoisin] ([pGlu]PSKDAFIGLM-NH2)
Fold Induction ATP ([1]; mouse): 1.2* fold
Fold Induction cAMP ([2]; mouse, 0.001 µM): 1.2* (1 nM) fold
Fold Induction (Doublecortin-positive cells) ([3]; mouse): 1.7 fold
% Doublecortin-positive cells ([4]; Table 6, 100 nM, 4 days): 4.3%
cAMP (pmol/well) ([5]; 1 nM (cAMP concentration)): 1.0 ± 0.06 pmol/well
ATP (nM ATP/well) ([6]; Table 2, 100 nM, 4 days): 10.4 ± 1.1 nM ATP/well

CC[C@H](C)[C@H](NC(=O)[C@H](CC(=O)O)NC(=O)[C@H](CC(C)C)NC(=O)[C@H](Cc1cnc[nH]1)NC(=O)[C@@H]1CSSC[C@H](N)C(=O)N[C@@H](CO)C(=O)N[C@H]2CSSC[C@H](NC(=O)[C@H](CCC(=O)O)NC(=O)[C@H](CCCCN)NC(=O)[C@H](CC(=O)O)NC(=O)[C@H](CCSC)NC(=O)[C@H](CC(C)C)NC(=O)[C@H](CO)NC(=O)[C@H](CO)NC2=O)C(=O)N[C@@H](C(C)C)C(=O)N[C@@H](Cc2ccc(O)cc2)C(=O)N[C@@H](Cc2ccccc2)C(=O)N1)C(=O)N[C@H](C(=O)N[C@@H](Cc1c[nH]c2ccccc12)C(=O)O)[C@@H](C)CC [Endothelin-1 (human, porcine)]
NFAT Luciferace units ([7]; Table 4, 10 nM): 13.3 ± 1.3 Luciferace units
Fold Induction NFAT ([7]; Table 4, 10 nM, vs vehicle): 1.6** fold
% Doublecortin-positive cells ([4]; Table 6, 10 nM, 4 days): 5.0%
Fold Induction (Doublecortin-positive cells) ([4]; Table 6, 10 nM): 2.0 fold
cAMP (pmol/well) ([5]; 10 nM (cAMP concentration)): 3.64 ± 1.13 pmol/well
Fold Induction cAMP ([5]; 10 nM): 2.0* fold
ATP (nM ATP/well) ([6]; Table 2, 10 nM, 4 days): 41.7 ± 7.2 nM ATP/well
Fold Induction ATP [6, 10]: 2.5* fold
ATP (nM ATP/well) ([6]; Table 4; 10 nM; Porcine,)): 35.3 ± 3.7 nM ATP/well
Fold Induction ATP ([6]; Table 4; 10 nM; vs vehicle; Porcine,), 0.01 µM): 1.3* fold

CC[C@H](C)[C@H](NC(=O)CNC(=O)[C@H](CC(=O)O)NC(=O)[C@H](CO)NC(=O)[C@@H](N)Cc1cnc[nH]1)C(=O)N[C@@H](Cc1ccccc1)C(=O)N[C@H](C(=O)N[C@@H](CC(=O)O)C(=O)N[C@@H](CO)C(=O)N[C@@H](Cc1ccc(O)cc1)C(=O)N[C@@H](CO)C(=O)N[C@@H](CCCNC(=N)N)C(=O)N[C@@H](Cc1ccc(O)cc1)C(=O)N[C@@H](CCCNC(=N)N)C(=O)N[C@@H](CCCCN)C(=O)N[C@@H](CCC(N)=O)C(=O)N[C@@H](CCSC)C(=O)N[C@@H](C)C(=O)N[C@H](C(=O)N[C@@H](CCCCN)C(=O)N[C@@H](CCCCN)C(=O)N[C@@H](Cc1ccc(O)cc1)C(=O)N[C@@H](CC(C)C)C(=O)N[C@@H](C)C(=O)N[C@@H](C)C(=O)N[C@H](C(=O)N[C@@H](CC(C)C)C(=O)NCC(=O)N[C@@H](CCCCN)C(=O)N[C@@H](CCCNC(=N)N)C(=O)N[C@@H](Cc1ccc(O)cc1)C(=O)N[C@@H](CCCCN)C(=O)N[C@@H](CCC(N)=O)C(=O)N[C@@H](CCCNC(=N)N)C(=O)N[C@H](C(=O)N[C@@H](CCCCN)C(=O)N[C@@H](CC(N)=O)C(=O)N[C@@H](CCCCN)C(N)=O)C(C)C)C(C)C)C(C)C)[C@@H](C)O [PACAP-38]
NFAT Luciferace units ([7]; Table 4, 10 nM): 6.2 ± 1.6 Luciferace units
Fold Induction NFAT ([7]; Table 4, 10 nM, vs vehicle): 1.7* fold
% Doublecortin-positive cells ([4]; Table 6, 100 nM, 4 days): 5.2%
Fold Induction (Doublecortin-positive cells) ([4]; Table 6, 100 nM): 2.0 fold
cAMP (pmol/well) ([5]; 100 nM (cAMP concentration)): 0.13 ± 0.03 pmol/well
Fold Induction cAMP ([5]; 100 nM): 4.2** fold
ATP (nM ATP/well) ([6]; Table 2, 100 nM, 4 days): 26.9 ± 3.7 nM ATP/well
Fold Induction ATP ([6]; Table 2, 100 nM, 4 days, vs vehicle): 2.9** fold
ATP (nM ATP/well) ([6]; Table 4, 10 nM): 22.0 ± 0.9 nM ATP/well
Fold Induction ATP ([6]; Table 4, 10 nM, vs vehicle): 2.3*** fold

CC[C@H](C)[C@H](NC(=O)[C@@H](NC(=O)[C@H](CC(=O)O)NC(=O)[C@H](CCC(N)=O)NC(=O)[C@H](Cc1c[nH]cn1)NC(=O)[C@@H]1CSSC[C@H](N)C(=O)N[C@@H](CO)C(=O)N[C@H]2CSSC[C@H](NC(=O)[C@H](CCC(=O)O)NC(=O)[C@H](CCCCN)NC(=O)[C@H](CC(=O)O)NC(=O)[C@H]([C@@H](C)O)NC(=O)[C@H](CCSC)NC(=O)[C@H](CC(=O)O)NC(=O)[C@H](CCCCN)NC2=O)C(=O)N[C@@H](CC(C)C)C(=O)N[C@@H](CC(N)=O)C(=O)N[C@@H](Cc2ccccc2)C(=O)N1)C(C)C)C(=O)N[C@@H](Cc1c[nH]c2ccccc12)C(=O)O [Sarafotoxin S6a] (H-CSCKDMTDKECLNFCHQDVIW-OH; disulfide 1-15, 3-11; N-terminus and C-terminus assumed)
NFAT Luciferace units ([7]; Table 4, 1 nM): 6.3 ± 2.4 Luciferace units
Fold Induction NFAT ([7]; Table 4, 1 nM, vs vehicle): 3.4* fold
% Doublecortin-positive cells ([4]; Table 6, 100 nM, 4 days): 3.2%
Fold Induction (Doublecortin-positive cells) ([4]; Table 6, 100 nM): 1.3 fold
cAMP (pmol/well) ([5]; 10 nM (cAMP concentration)): 0.41 ± 0.06 pmol/well
Fold Induction cAMP ([5]; 10 nM): 1.4* fold
ATP (nM ATP/well) ([6]; Table 2, 10 nM, 4 days): 43.3 ± 4.5 nM ATP/well
Fold Induction ATP [6, 10]: 3.5*** fold
ATP (nM ATP/well) ([6]; Table 4, 1 nM): 38.9 ± 3.2 nM ATP/well
Fold Induction ATP ([6]; Table 4, 1 nM, vs vehicle): 3.1*** fold

CC1(C)SSC(C)(C)[C@@H](NC(=O)[C@@H](N)Cc2ccc(O)cc2)C(=O)NCC(=O)N[C@@H](Cc2ccccc2)C(=O)N[C@H]1C(=O)O [[D-Pen2-5]-Enkephalin]
NFAT Luciferace units ([7]; Table 4, 100 nM): 10.3 ± 2.1 Luciferace units
Fold Induction NFAT ([7]; Table 4, 100 nM, vs vehicle): 1.8* fold
% Doublecortin-positive cells ([4]; Table 6, 100 nM, 4 days): 3.3%
Fold Induction (Doublecortin-positive cells) ([4]; Table 6, 100 nM): 1.3 fold
cAMP (pmol/well) ([5]; 10 nM (cAMP concentration)): 0.06 ± 0.01 pmol/well
Fold Induction cAMP ([5]; 10 nM): 1.7* fold
ATP (nM ATP/well) ([6]; Table 2, 10 nM, 4 days): 10.7 ± 0.9 nM ATP/well
Fold Induction ATP [6, 10]: 1.2** fold
ATP (nM ATP/well) ([6]; Table 4, 10 nM): 10.7 ± 0.9 nM ATP/well
Fold Induction ATP ([6]; Table 4, 10 nM, vs vehicle): 1.2* fold

PACAP: pituitary adengate cyclase activating peptide, cAMP activator (HSDGIFTDSYSRYRKQMAVKKYLAAVLGKRYKQRVKNK; ends and bridges not checked; UniProt P18509 132-169, looked up)
CREB phosphorylation [8]: up-regulation of CREB phosphorylation
CREB phosphorylation [9]: up-regulation of CREB phosphorylation
